# Experiments:
# [1] = tested on: H2AX-encoding mRNA; assay: RT-qPCR of H2AX-encoding mRNA after siRNA transfection; assay type: cell-based, human; details: for H2AX mRNA expression: both lines
# Experimental: (§1) All the cells used in the following examples are human cells and express H2AX.
# (§2) The cells are cultured in DMEM or RPMI supplemented with 10% fetal calf serum, or as recommended by the ATCC. When indicated, they are transfected with siRNA using lipofectamine (Life Technologies), following the supplier's protocol. The number of living cells after the indicated treatments was quantified by measuring their metabolic activity by the WST1 test according to the supplier's indications (Roche).
# (§3) The effect of siRNA transfection and/or treatments by different chemotherapeutic agents on gene expression was measured: • by RT-qPCR quantification of mRNAs extracted by a conventional phenol-chloroform method (Trizol). The amount of RNA was normalized by measuring the cyclophilin A-encoding mRNA which is not regulated by AR (delta delta CT method). • by Western blotting on protein extracts. The antibodies used are: AR: Santacruz, N-20 sc-816; H2AX: Merck Millipore ref 07-627; Tubulin: Sigma T6199; Actin: Merck Millipore MAB 1501; γH2AX: Merck Millipore 05-636. […] The antibodies used are the following: γH2AX: Merck Millipore 05-636; 53BP1: Novus, NB 100-304.
# [2] = tested on: AR-encoding mRNA; assay: RT-qPCR of AR-encoding mRNA after siRNA transfection; assay type: cell-based, human; details: for AR mRNA expression: both lines
# Experimental: as §1, §2, §3
# [3] = tested on: MDA MB231 cells; assay: WST1 cell viability test; assay type: cell-based, human; details: for cell viability, siRNA combined with etoposide: 40 μl of etoposide added 24 hours after transfection, WST1 48 h later
# Experimental: as §1, §2
# [4] = tested on: C4-2 cells; assay: WST1 cell viability test; assay type: cell-based, human
# Experimental: as §1, §2
# [5] = tested on: 22RV1 human prostatic tumor; assay: Subcutaneous tumor volume in mice; assay type: in vivo; details: twice a week
# Experimental: Tumors are obtained by subcutaneous injection of tumor cells into the flank of Nude mice. Only animals on which tumor uptake is found are included in the study and randomized to receive treatment or control treatment.
# When indicated, the continuous administration of siRNA is carried out by implantation of an Alzet osmotic pump subcutaneously on the back of the mice, on the opposite side to the tumor when the mice wear one. The concentration of siRNA in the pump is adjusted to deliver the indicated amount in mg/kg/day taking into account the pump flow rate indicated by the manufacturer.
# The subcutaneous tumors volume is estimated by measuring with a calliper the largest (D), the smallest (d) diameter of the tumors and their height (h). The volume is calculated by the formula V=D×d×h×Pi/6.
# [6] = tested on: H2AX; assay: Western blot of H2AX after siRNA transfection; assay type: cell-based, human; details: C4-2 cells, 72 h after transfection
# Experimental: as §1, §2, §3
# [7] = tested on: WM266-4 cells; assay: WST1 cell viability test; assay type: cell-based, human; details: for cell viability, siRNA combined with etoposide: 40 μl of etoposide added 24 hours after transfection, WST1 48 h later
# Experimental: as §1, §2
# [8] = tested on: MDA MB-453 cells; assay: WST1 cell viability test; assay type: cell-based, human; details: 72 hr after transfection
# Experimental: as §1, §2
# [9] = tested on: U87 cells; assay: WST1 cell viability test; assay type: cell-based, human; details: 72 hr after transfection
# Experimental: as §1, §2
# [10] = tested on: 22RV1 cells; assay: WST1 cell viability test; assay type: cell-based, human; details: 72 hr after transfection
# Experimental: as §1, §2
# [11] = tested on: γH2AX; assay: Indirect immunofluorescence of γH2AX, bleomycin-treated transfected cells; assay type: cell-based, human
# Experimental: (§4) FIG. 8: Immuno detection of γH2AX (first column) and 53BP1 (second column) in C4-2 cells treated for 6 h with bleomycin ([…]) or the vehicle added 72 h after transfection of cells by a control siRNA (Cont), siAR7 siRNA, or siARH2AX-1.
# as §1, §2, §3
# (§5) In the experiment shown in FIG. 8, C4-2 cells were transfected with a control or siARH2AX-1 siRNA. 72 hours after transfection, the cells were then treated for 6 hours with […] of bleomycin or the corresponding vehicle.
# [12] = tested on: 53BP1; assay: Indirect immunofluorescence of 53BP1, bleomycin-treated transfected cells; assay type: cell-based, human; details: C4-2 cells transfected with Cont siRNA, 6 hours with 10 μl of bleomycin
# Experimental: as §4, §1, §2, §3, §5
# [13] = tested on: PSA-encoding mRNA; assay: RT-qPCR of PSA-encoding mRNA after siRNA transfection; assay type: cell-based, human; details: LNCaP or C4-2 cells, both lines, 72 hours after transfection
# Experimental: as §1, §2, §3
# In the experiment shown in FIG. 4, the LNCaP or C4-2 tumor cells were transfected with the following siRNAs: Cont, siAR7 or siARH2AX-1.
# [14] = tested on: LNCaP cells; assay: WST1 cell viability test; assay type: cell-based, human; details: 72 hr after transfection
# Experimental: as §1, §2
# [15] = tested on: AR; assay: Western blot of AR after siRNA transfection; assay type: cell-based, human; details: C4-2 cells, 72 h after transfection
# Experimental: as §1, §2, §3
# [16] = C4-2 cells, 48 hours after transfection, relative to control siRNA
# [17] = LNCaP or MDA MB-453 cells, 72 h after transfection
# [18] = LNCaP or C4-2 cells, 72 hours after transfection
molecule,measurement,setting,value
"siAR2: siRNA inhibiting AR described in PCT/FR2002/003843, SEQ ID NO 9 and SEQ ID NO 10 (chain 1 GACUCAGCUGCCCCAUCCACGNN; chain 2 CGUGGAUGGGGCAGCUGAGUCNN; chemistry not fully specified)",H2AX expression (mRNA),[1]; [16],considerably less effective at inhibiting the expression of H2AX
same,AR expression (mRNA),[2]; [16],inhibit AR expression in a similar manner
same,cell viability,[3]; 90 hours after transfection,only marginally
same,cell viability,[4]; 90 hours after transfection,only marginally
same,"cell viability, siRNA combined with bleomycin","[4]; bleomycin (10 μM) added 48 hours after transfection, read 48 hours later, versus chemotherapeutic agent alone",does not produce a significantly greater viability-inhibiting effect
same,"cell viability, siRNA combined with etoposide","[4]; etoposide (10 μM) added 48 hours after transfection, read 48 hours later, versus chemotherapeutic agent alone",does not produce a significantly greater viability-inhibiting effect
COc1cc([C@@H]2c3cc4c(cc3[C@@H](O[C@@H]3O[C@@H]5CO[C@@H](C)O[C@H]5[C@H](O)[C@H]3O)[C@H]3COC(=O)[C@H]23)OCO4)cc(OC)c1O [etoposide],tumor development,[5]; etoposide 5 mg/kg intraperitoneal,only slightly inhibits tumor development
same,tumor development,[5]; etoposide 15 mg/kg intraperitoneal,produces an inhibition
siH2AX: siRNA hybridizing with H2AX mRNA but not with that of AR; SEQ ID NO 15 and 16 (chain 1 CUGGAAUUCUGCAGCUAACNN; chain 2 GUUAGCUGCAGAAUUCCAGNN; chemistry not fully specified),H2AX mRNA expression,[1]; [17],inhibits H2AX
same,H2AX protein expression,[6],inhibits H2AX
same,"cell viability, siRNA combined with etoposide",[7],no amplification of the effects of etoposide
same,cell viability / proliferation,[7]; 72 hr after transfection,has little effect on cell proliferation
same,"cell viability, siRNA combined with etoposide",[3],no amplification of the effects of etoposide
same,cell viability / proliferation,[3]; 72 hr after transfection,has little effect on cell proliferation
same,cell viability / proliferation,[8],has little effect on cell proliferation
same,cell viability / proliferation,[9],has little effect on cell proliferation
same,cell viability / proliferation,[10],has little effect on cell proliferation
bleomycin,expression of γH2AX,"[11]; C4-2 cells transfected with Cont siRNA, 6 hours with 10 μl of bleomycin",strongly increases
same,53BP1 labeling,[12],becomes punctiforme
"siAR7: siRNA hybridizing with a sequence of the 7th exon of AR, not H2AX; SEQ ID NO 13 and 14 (chain 1 AAUGAUACGAUCGAGUUCCNN; chain 2 GGAACUCGAUCGUAUCAUUNN; chemistry not fully specified)",H2AX mRNA expression,[1]; [18],only siARH2AX-1 also inhibits the expression of H2AX
same,PSA mRNA expression,[13],inhibit the expression of AR and PSA
same,γH2AX labeling after bleomycin,"[11]; siRNA-transfected C4-2 cells, 72 hours after transfection, bleomycin 6 hours",increase in γH2AX labeling
same,AR mRNA expression,[2]; [18],inhibit the expression of AR and PSA
same,cell viability / proliferation,[4]; 72 hr after transfection,inhibit the proliferation
same,cell viability / proliferation,[14],inhibit the proliferation
"siARh: siRNA hybridizing with a sequence of the first exon of AR, not H2AX; SEQ ID NO 11 and 12 (chain 1 UCCCCAAGCCCAUCGUAGANN; chain 2 UCUACGAUGGGCUUGGGGANN; chemistry not fully specified)",AR protein expression,[15],inhibits AR
same,AR mRNA expression,[2]; [17],inhibits AR
same,"cell viability, siRNA combined with etoposide",[7],no amplification of the effects of etoposide
same,"cell viability, siRNA combined with etoposide",[3],no amplification of the effects of etoposide
same,cell viability / proliferation,[10],inhibit the proliferation
